Measured values as given in PubChem BioAssay AID2060495 (Molecular Pharmacology Branch, DTP, NCI, 2025).

Tested on: 521955-158-R2-J5-PDC complex spheroid viability
Assay: Anticancer human tumor 521955-158-R2-J5-PDC patient-derived pancreatic carcinoma cell line growth inhibition [GQUAD]
Conditions: for IC50: curve of first compound; for viability, T/C: stronger effect = lower value
How it was run: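 Viability of tumor cells grown as complex spheroids with endothelial and stromal cells, exposed to drug combinations. Top concentration at or near clinical Cmax (else 10 microM), diluted in half-log increments.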

[1] = second compound 0.0316 µM, first compound 0.0316 µM
[2] = second compound 0.0316 µM, first compound 0.1 µM
[3] = second compound 0.0316 µM, first compound 0.316 µM
[4] = second compound 0.0316 µM, first compound 1 µM
[5] = second compound 0.0316 µM, first compound 3.16 µM
[6] = second compound 0.0316 µM, first compound 10 µM
[7] = second compound 0.1 µM, first compound 0.0316 µM
[8] = second compound 0.1 µM, first compound 0.1 µM
[9] = second compound 0.1 µM, first compound 0.316 µM
[10] = second compound 0.1 µM, first compound 1 µM
[11] = second compound 0.1 µM, first compound 3.16 µM
[12] = second compound 0.1 µM, first compound 10 µM
[13] = second compound 0.316 µM, first compound 0.0316 µM
[14] = second compound 0.316 µM, first compound 0.1 µM
[15] = second compound 0.316 µM, first compound 0.316 µM
[16] = second compound 0.316 µM, first compound 1 µM
[17] = second compound 0.316 µM, first compound 3.16 µM
[18] = second compound 0.316 µM, first compound 10 µM
[19] = second compound 1 µM, first compound 0.0316 µM
[20] = second compound 1 µM, first compound 0.1 µM
[21] = second compound 1 µM, first compound 0.316 µM
[22] = second compound 1 µM, first compound 1 µM
[23] = second compound 1 µM, first compound 3.16 µM
[24] = second compound 1 µM, first compound 10 µM
[25] = second compound 3.16 µM, first compound 0.0316 µM
[26] = second compound 3.16 µM, first compound 0.1 µM
[27] = second compound 3.16 µM, first compound 0.316 µM
[28] = second compound 3.16 µM, first compound 1 µM
[29] = second compound 3.16 µM, first compound 3.16 µM
[30] = second compound 3.16 µM, first compound 10 µM
[31] = second compound 10 µM, first compound 0.0316 µM
[32] = second compound 10 µM, first compound 0.1 µM
[33] = second compound 10 µM, first compound 0.316 µM
[34] = second compound 10 µM, first compound 1 µM
[35] = second compound 10 µM, first compound 3.16 µM
[36] = second compound 10 µM, first compound 10 µM
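Also: spheroids exposed to agents for one week before reading.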
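For viability, T/C in this document: 100% = DMSO vehicle control viability.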

C#Cc1c(F)ccc2cc(O)cc(-c3ncc4c(N5CC6CCC(C5)N6)nc(OCC56CCCN5CC(F)C6)nc4c3F)c12 (stereo not drawn) + Cc1[nH]c2ccc(F)cc2c1-c1nc2c3cccnc3c3ncccc3c2[nH]1
IC50 (second compound 0.0316 µM): 1.64 µM | IC50 (second compound 0.1 µM): > 10 µM | IC50 (second compound 0.316 µM): 3.5 µM | IC50 (second compound 1 µM): 7.53 µM | IC50 (second compound 3.16 µM): 4.29 µM | IC50 (second compound 10 µM): 1.04 µM | viability, T/C [1]: 79.8% | viability, T/C [2]: 68.6% | viability, T/C [3]: 67.3% | viability, T/C [4]: 40.5% | viability, T/C [5]: 57% | viability, T/C [6]: 36.3% | viability, T/C [7]: 82.2% | viability, T/C [8]: 81% | viability, T/C [9]: 64.4% | viability, T/C [10]: 45.1% | viability, T/C [11]: 58.3% | viability, T/C [12]: 46.4% | viability, T/C [13]: 74.9% | viability, T/C [14]: 67.4% | viability, T/C [15]: 53% | viability, T/C [16]: 61% | viability, T/C [17]: 54% | viability, T/C [18]: 42.7% | viability, T/C [19]: 58.9% | viability, T/C [20]: 72.2% | viability, T/C [21]: 68.2% | viability, T/C [22]: 57.5% | viability, T/C [23]: 59.1% | viability, T/C [24]: 47.4% | viability, T/C [25]: 54.1% | viability, T/C [26]: 58.5% | viability, T/C [27]: 59.5% | viability, T/C [28]: 50% | viability, T/C [29]: 62.7% | viability, T/C [30]: 30.9% | viability, T/C [31]: 53.3% | viability, T/C [32]: 55.4% | viability, T/C [33]: 60.6% | viability, T/C [34]: 47.4% | viability, T/C [35]: 39.4% | viability, T/C [36]: 26.6%

C=CCn1c(=O)c2cnc(Nc3ccc(N4CCN(C)CC4)cc3)nc2n1-c1cccc(C(C)(C)O)n1 + Cc1[nH]c2ccc(F)cc2c1-c1nc2c3cccnc3c3ncccc3c2[nH]1
IC50 (second compound 0.0316 µM): 0.217 µM | IC50 (second compound 0.1 µM): 0.182 µM | IC50 (second compound 0.316 µM): 0.177 µM | IC50 (second compound 1 µM): 0.175 µM | IC50 (second compound 3.16 µM): 0.159 µM | IC50 (second compound 10 µM): 0.192 µM | viability, T/C [1]: 103% | viability, T/C [2]: 84.9% | viability, T/C [3]: 33.1% | viability, T/C [4]: 14.6% | viability, T/C [5]: 12.6% | viability, T/C [6]: 12.1% | viability, T/C [7]: 95.1% | viability, T/C [8]: 75.8% | viability, T/C [9]: 25.8% | viability, T/C [10]: 15.8% | viability, T/C [11]: 11.1% | viability, T/C [12]: 10.5% | viability, T/C [13]: 79.9% | viability, T/C [14]: 66.6% | viability, T/C [15]: 33.2% | viability, T/C [16]: 15.2% | viability, T/C [17]: 13.2% | viability, T/C [18]: 12.1% | viability, T/C [19]: 84.1% | viability, T/C [20]: 75.4% | viability, T/C [21]: 23.4% | viability, T/C [22]: 12.8% | viability, T/C [23]: 12.6% | viability, T/C [24]: 10.4% | viability, T/C [25]: 77% | viability, T/C [26]: 60.4% | viability, T/C [27]: 34.8% | viability, T/C [28]: 15% | viability, T/C [29]: 15.3% | viability, T/C [30]: 19.6% | viability, T/C [31]: 68.7% | viability, T/C [32]: 68.3% | viability, T/C [33]: 36.5% | viability, T/C [34]: 18.2% | viability, T/C [35]: 14% | viability, T/C [36]: 15.6%

CCCS(=O)(=O)Nc1ccc(F)c(C(=O)c2c[nH]c3ncc(-c4ccc(Cl)cc4)cc23)c1F + Cc1[nH]c2ccc(F)cc2c1-c1nc2c3cccnc3c3ncccc3c2[nH]1
IC50 (second compound 0.0316 µM): > 10 µM | IC50 (second compound 0.1 µM): > 10 µM | IC50 (second compound 0.316 µM): > 10 µM | IC50 (second compound 1 µM): > 10 µM | IC50 (second compound 3.16 µM): > 10 µM | IC50 (second compound 10 µM): > 10 µM | viability, T/C [1]: 103% | viability, T/C [2]: 95.9% | viability, T/C [3]: 79.8% | viability, T/C [4]: 105% | viability, T/C [5]: 198% | viability, T/C [6]: 112% | viability, T/C [7]: 104% | viability, T/C [8]: 86% | viability, T/C [9]: 72.1% | viability, T/C [10]: 97.4% | viability, T/C [11]: 226% | viability, T/C [12]: 96.9% | viability, T/C [13]: 97.2% | viability, T/C [14]: 95.5% | viability, T/C [15]: 78.6% | viability, T/C [16]: 101% | viability, T/C [17]: 226% | viability, T/C [18]: 105% | viability, T/C [19]: 99.9% | viability, T/C [20]: 88.6% | viability, T/C [21]: 78.1% | viability, T/C [22]: 102% | viability, T/C [23]: 272% | viability, T/C [24]: 95.2% | viability, T/C [25]: 92.3% | viability, T/C [26]: 76% | viability, T/C [27]: 65% | viability, T/C [28]: 220% | viability, T/C [29]: 265% | viability, T/C [30]: 99.9% | viability, T/C [31]: 99.8% | viability, T/C [32]: 84.9% | viability, T/C [33]: 64.9% | viability, T/C [34]: 173% | viability, T/C [35]: 258% | viability, T/C [36]: 84.6%

COc1ncnc(C2CC2)c1-c1ncc2cnn(Cc3ccc(-c4nc(C(F)(F)F)cn4C(C)C)cc3)c2n1 + Cc1[nH]c2ccc(F)cc2c1-c1nc2c3cccnc3c3ncccc3c2[nH]1
IC50 (second compound 0.0316 µM): > 10 µM | IC50 (second compound 0.1 µM): > 10 µM | IC50 (second compound 0.316 µM): > 10 µM | IC50 (second compound 1 µM): > 10 µM | IC50 (second compound 3.16 µM): > 10 µM | IC50 (second compound 10 µM): > 10 µM | viability, T/C [1]: 94% | viability, T/C [2]: 103% | viability, T/C [3]: 107% | viability, T/C [4]: 111% | viability, T/C [5]: 100% | viability, T/C [6]: 143% | viability, T/C [7]: 101% | viability, T/C [8]: 99.2% | viability, T/C [9]: 105% | viability, T/C [10]: 126% | viability, T/C [11]: 104% | viability, T/C [12]: 121% | viability, T/C [13]: 109% | viability, T/C [14]: 97.5% | viability, T/C [15]: 125% | viability, T/C [16]: 112% | viability, T/C [17]: 116% | viability, T/C [18]: 126% | viability, T/C [19]: 97.8% | viability, T/C [20]: 91.9% | viability, T/C [21]: 102% | viability, T/C [22]: 112% | viability, T/C [23]: 133% | viability, T/C [24]: 119% | viability, T/C [25]: 87.7% | viability, T/C [26]: 90.1% | viability, T/C [27]: 98.1% | viability, T/C [28]: 111% | viability, T/C [29]: 125% | viability, T/C [30]: 116% | viability, T/C [31]: 81.8% | viability, T/C [32]: 68.6% | viability, T/C [33]: 101% | viability, T/C [34]: 102% | viability, T/C [35]: 109% | viability, T/C [36]: 116%
